Results: article PMC3928151 (ACS chemical biology, 2013)

Target: CaCrg1 (Candida albicans, UniProt A0A1D8PSY8)
Experiment: […] methyl transfer, acid-labile volatility
Type: biochemical
Conditions: 0.2 mM cantharidin, 20 µM S-adenosyl-[methyl-14C]-L-methionine, 0.1 M sodium phosphate pH 7.4, 30 °C, 120 min

In the case of C[C@@]12C(=O)OC(=O)[C@]1(C)[C@H]1CC[C@@H]2O1 [cantharidin], the “14C methyl transfer, acid-labile volatility (14C-methanol)” value is reported as “demonstrating that CaCrg1 is a functional MTase methylating cantharidin in vitro”.
